Source: PubChem BioAssay (NCI)
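Briefly, cells in 96-well plates were exposed to five compound concentrations for 48 h, and endpoints were estimated by linear interpolation. TGI: total growth inhibition.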

Key:
Test in all cases: inhibition of tumour cell growth, NCI panel, 48 h
HCT-116 colon = test system: HCT-116 colon
SNB-75 CNS = test system: SNB-75 CNS
OVCAR-3 ovarian = test system: OVCAR-3 ovarian
HCC-2998 colon = test system: HCC-2998 colon
BT-549 breast = test system: BT-549 breast
ACHN renal = test system: ACHN renal
K-562 leukemia = test system: K-562 leukemia
A549 NSCLC = test system: A549 NSCLC
SF-539 CNS = test system: SF-539 CNS
OVCAR-8 ovarian = test system: OVCAR-8 ovarian
HCT-15 colon = test system: HCT-15 colon
RPMI-8226 leukemia = test system: RPMI-8226 leukemia
SF-295 CNS = test system: SF-295 CNS
HT29 colon = test system: HT29 colon
CCRF-CEM leukemia = test system: CCRF-CEM leukemia
EKVX NSCLC = test system: EKVX NSCLC
HS 578T breast = test system: HS 578T breast
MCF7 breast = test system: MCF7 breast
SK-MEL-2 melanoma = test system: SK-MEL-2 melanoma
MDA-MB-435 = test system: MDA-MB-435
UACC-62 melanoma = test system: UACC-62 melanoma
RXF 393 renal = test system: RXF 393 renal
SR leukemia = test system: SR leukemia
U251 CNS = test system: U251 CNS
MDA-MB-231 breast = test system: MDA-MB-231 breast
PC-3 prostate = test system: PC-3 prostate
T-47D breast = test system: T-47D breast
SF-268 CNS = test system: SF-268 CNS
OVCAR-4 ovarian = test system: OVCAR-4 ovarian
MOLT-4 leukemia = test system: MOLT-4 leukemia
SK-OV-3 ovarian = test system: SK-OV-3 ovarian
MALME-3M melanoma = test system: MALME-3M melanoma
CAKI-1 renal = test system: CAKI-1 renal
UACC-257 melanoma = test system: UACC-257 melanoma
IGROV1 ovarian = test system: IGROV1 ovarian
786-0 renal = test system: 786-0 renal
M14 melanoma = test system: M14 melanoma
SK-MEL-5 melanoma = test system: SK-MEL-5 melanoma
SNB-19 CNS = test system: SNB-19 CNS
TK-10 renal = test system: TK-10 renal
SK-MEL-28 melanoma = test system: SK-MEL-28 melanoma
KM12 colon = test system: KM12 colon
DU-145 prostate = test system: DU-145 prostate
NCI-H226 lung = test system: NCI-H226 lung
COLO 205 colon = test system: COLO 205 colon
NCI/ADR-RES ovarian = test system: NCI/ADR-RES ovarian
LOX IMVI melanoma = test system: LOX IMVI melanoma
MDA-N = test system: MDA-N
SW-620 colon = test system: SW-620 colon
OVCAR-5 ovarian = test system: OVCAR-5 ovarian
NCI-H460 lung = test system: NCI-H460 lung
UO-31 renal = test system: UO-31 renal
HL-60(TB) leukemia = test system: HL-60(TB) leukemia
HOP-92 NSCLC = test system: HOP-92 NSCLC
SN12C renal = test system: SN12C renal
HOP-62 NSCLC = test system: HOP-62 NSCLC
NCI-H23 lung = test system: NCI-H23 lung
NCI-H522 lung = test system: NCI-H522 lung

## O=C(OCCN=C1c2ccccc2CCc2ccccc21)c1ccccc1
HCT-116 colon
  TGI: > 100 µM
SNB-75 CNS
  TGI: > 100 µM
OVCAR-3 ovarian
  TGI: > 100 µM
HCC-2998 colon
  TGI: > 100 µM
BT-549 breast
  TGI: > 100 µM
ACHN renal
  TGI: > 100 µM
K-562 leukemia
  TGI: > 100 µM
A549 NSCLC
  TGI: > 100 µM
SF-539 CNS
  TGI: > 100 µM
OVCAR-8 ovarian
  TGI: > 100 µM
HCT-15 colon
  TGI: > 100 µM
RPMI-8226 leukemia
  TGI: 34.2 µM
SF-295 CNS
  TGI: > 100 µM
HT29 colon
  TGI: > 100 µM
CCRF-CEM leukemia
  TGI: > 100 µM
EKVX NSCLC
  TGI: > 100 µM
HS 578T breast
  TGI: > 100 µM
MCF7 breast
  TGI: > 100 µM
SK-MEL-2 melanoma
  TGI: > 100 µM
MDA-MB-435
  TGI: > 100 µM
UACC-62 melanoma
  TGI: > 100 µM
RXF 393 renal
  TGI: > 100 µM
SR leukemia
  TGI: 50.2 µM
U251 CNS
  TGI: > 100 µM
MDA-MB-231 breast
  TGI: > 100 µM
PC-3 prostate
  TGI: > 100 µM
T-47D breast
  TGI: > 100 µM
SF-268 CNS
  TGI: > 100 µM
OVCAR-4 ovarian
  TGI: > 100 µM
MOLT-4 leukemia
  TGI: 39 µM
SK-OV-3 ovarian
  TGI: > 100 µM
MALME-3M melanoma
  TGI: > 100 µM
CAKI-1 renal
  TGI: > 100 µM
UACC-257 melanoma
  TGI: > 100 µM
IGROV1 ovarian
  TGI: > 100 µM
786-0 renal
  TGI: > 100 µM
M14 melanoma
  TGI: > 100 µM
SK-MEL-5 melanoma
  TGI: > 100 µM
SNB-19 CNS
  TGI: > 100 µM
TK-10 renal
  TGI: > 100 µM
SK-MEL-28 melanoma
  TGI: > 100 µM
KM12 colon
  TGI: > 100 µM
DU-145 prostate
  TGI: > 100 µM
NCI-H226 lung
  TGI: > 100 µM
COLO 205 colon
  TGI: > 100 µM
NCI/ADR-RES ovarian
  TGI: > 100 µM
LOX IMVI melanoma
  TGI: > 100 µM
MDA-N
  TGI: > 100 µM
SW-620 colon
  TGI: > 100 µM
OVCAR-5 ovarian
  TGI: > 100 µM
NCI-H460 lung
  TGI: > 100 µM
UO-31 renal
  TGI: > 100 µM
HL-60(TB) leukemia
  TGI: > 100 µM
HOP-92 NSCLC
  TGI: > 100 µM
SN12C renal
  TGI: > 100 µM
HOP-62 NSCLC
  TGI: > 100 µM
NCI-H23 lung
  TGI: > 100 µM

## O=C(OCCN1CCCCCC1)C(c1ccsc1)C1CCCCC1 (centres undefined)
HCT-116 colon
  TGI: 29.6 µM
SNB-75 CNS
  TGI: 32.2 µM
OVCAR-3 ovarian
  TGI: 28.8 µM
HCC-2998 colon
  TGI: 31.5 µM
BT-549 breast
  TGI: 29.6 µM
ACHN renal
  TGI: 33.1 µM
A549 NSCLC
  TGI: 44.5 µM
SF-539 CNS
  TGI: 30.8 µM
OVCAR-8 ovarian
  TGI: 34.5 µM
HCT-15 colon
  TGI: 30.8 µM
RPMI-8226 leukemia
  TGI: 32.1 µM
SF-295 CNS
  TGI: 32.4 µM
HT29 colon
  TGI: 31.6 µM
CCRF-CEM leukemia
  TGI: 40.2 µM
EKVX NSCLC
  TGI: 35.7 µM
HS 578T breast
  TGI: 37.8 µM
MCF7 breast
  TGI: 33 µM
MDA-MB-435
  TGI: 32.3 µM
SR leukemia
  TGI: 57.2 µM
U251 CNS
  TGI: 32.1 µM
MDA-MB-231 breast
  TGI: 31.8 µM
PC-3 prostate
  TGI: 44.9 µM
T-47D breast
  TGI: 17.8 µM
SF-268 CNS
  TGI: 36.8 µM
MOLT-4 leukemia
  TGI: 50.6 µM
SK-OV-3 ovarian
  TGI: 31.8 µM
MALME-3M melanoma
  TGI: 28.2 µM
CAKI-1 renal
  TGI: 29.4 µM
UACC-257 melanoma
  TGI: 34.5 µM
IGROV1 ovarian
  TGI: 24.2 µM
786-0 renal
  TGI: 31.8 µM
M14 melanoma
  TGI: 32.8 µM
SNB-19 CNS
  TGI: 40.4 µM
TK-10 renal
  TGI: 33.5 µM
SK-MEL-28 melanoma
  TGI: 36.2 µM
KM12 colon
  TGI: 32.1 µM
DU-145 prostate
  TGI: 33.2 µM
COLO 205 colon
  TGI: 22.7 µM
NCI/ADR-RES ovarian
  TGI: 31.4 µM
LOX IMVI melanoma
  TGI: 32.2 µM
MDA-N
  TGI: 28.4 µM
SW-620 colon
  TGI: 33.4 µM
OVCAR-5 ovarian
  TGI: 32.5 µM
NCI-H460 lung
  TGI: 33 µM
UO-31 renal
  TGI: 26.9 µM
HL-60(TB) leukemia
  TGI: 70.6 µM
HOP-92 NSCLC
  TGI: 31.2 µM
SN12C renal
  TGI: 32.8 µM
HOP-62 NSCLC
  TGI: 29.9 µM
NCI-H23 lung
  TGI: 39 µM

## NC1CSc2ccccc2NC1=O (centres undefined)
HCT-116 colon
  TGI: > 100 µM
SNB-75 CNS
  TGI: > 100 µM
OVCAR-3 ovarian
  TGI: > 100 µM
HCC-2998 colon
  TGI: > 100 µM
BT-549 breast
  TGI: > 100 µM
ACHN renal
  TGI: > 100 µM
K-562 leukemia
  TGI: > 100 µM
A549 NSCLC
  TGI: > 100 µM
SF-539 CNS
  TGI: > 100 µM
OVCAR-8 ovarian
  TGI: > 100 µM
HCT-15 colon
  TGI: > 100 µM
RPMI-8226 leukemia
  TGI: > 100 µM
SF-295 CNS
  TGI: > 100 µM
HT29 colon
  TGI: > 100 µM
CCRF-CEM leukemia
  TGI: > 100 µM
EKVX NSCLC
  TGI: > 100 µM
HS 578T breast
  TGI: > 100 µM
MCF7 breast
  TGI: > 100 µM
SK-MEL-2 melanoma
  TGI: > 100 µM
MDA-MB-435
  TGI: > 100 µM
UACC-62 melanoma
  TGI: > 100 µM
NCI-H522 lung
  TGI: > 100 µM
RXF 393 renal
  TGI: > 100 µM
SR leukemia
  TGI: > 100 µM
U251 CNS
  TGI: > 100 µM
MDA-MB-231 breast
  TGI: > 100 µM
PC-3 prostate
  TGI: > 100 µM
T-47D breast
  TGI: > 100 µM
SF-268 CNS
  TGI: > 100 µM
OVCAR-4 ovarian
  TGI: > 100 µM
MOLT-4 leukemia
  TGI: > 100 µM
SK-OV-3 ovarian
  TGI: > 100 µM
MALME-3M melanoma
  TGI: > 100 µM
CAKI-1 renal
  TGI: > 100 µM
UACC-257 melanoma
  TGI: > 100 µM
IGROV1 ovarian
  TGI: > 100 µM
786-0 renal
  TGI: > 100 µM
M14 melanoma
  TGI: > 100 µM
SK-MEL-5 melanoma
  TGI: > 100 µM
SNB-19 CNS
  TGI: > 100 µM
TK-10 renal
  TGI: > 100 µM
SK-MEL-28 melanoma
  TGI: > 100 µM
KM12 colon
  TGI: > 100 µM
DU-145 prostate
  TGI: > 100 µM
NCI-H226 lung
  TGI: > 100 µM
COLO 205 colon
  TGI: > 100 µM
NCI/ADR-RES ovarian
  TGI: > 100 µM
LOX IMVI melanoma
  TGI: > 100 µM
MDA-N
  TGI: > 100 µM
SW-620 colon
  TGI: > 100 µM
OVCAR-5 ovarian
  TGI: > 100 µM
NCI-H460 lung
  TGI: > 100 µM
UO-31 renal
  TGI: > 100 µM
HL-60(TB) leukemia
  TGI: > 100 µM
SN12C renal
  TGI: > 100 µM
HOP-62 NSCLC
  TGI: > 100 µM
NCI-H23 lung
  TGI: > 100 µM
